# From PubChem BioAssay (NCI)
#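 Compound exposure: 48 hours, 5 concentrations, 96-well plates. At the TGI there is no net growth.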
# Assays:
# Assay in all cases: NCI tumour cell line growth inhibition, 48 h
# [1] = system: 786-0 renal
# [2] = system: A498 renal
# [3] = system: A549 NSCLC
# [4] = system: ACHN renal
# [5] = system: CAKI-1 renal
# [6] = system: CCRF-CEM leukemia
# [7] = system: COLO 205 colon
# [8] = system: DLD-1 colon
# [9] = system: DMS 114 small cell lung
# [10] = system: EKVX NSCLC
# [11] = system: HCC-2998 colon
# [12] = system: HCT-116 colon
# [13] = system: HCT-15 colon
# [14] = system: HL-60(TB) leukemia
# [15] = system: HOP-18 NSCLC
# [16] = system: HOP-92 NSCLC
# [17] = system: HT29 colon
# [18] = system: IGROV1 ovarian
# [19] = system: K-562 leukemia
# [20] = system: KM12 colon
# [21] = system: LOX IMVI melanoma
# [22] = system: LXFL 529 NSCLC
# [23] = system: M14 melanoma
# [24] = system: M19-MEL melanoma
# [25] = system: MALME-3M melanoma
# [26] = system: MOLT-4 leukemia
# [27] = system: NCI-H226 lung
# [28] = system: NCI-H23 lung
# [29] = system: NCI-H460 lung
# [30] = system: NCI-H522 lung
# [31] = system: OVCAR-4 ovarian
# [32] = system: OVCAR-5 ovarian
# [33] = system: OVCAR-8 ovarian
# [34] = system: RPMI-8226 leukemia
# [35] = system: RXF-631 renal
# [36] = system: SF-268 CNS
# [37] = system: SF-295 CNS
# [38] = system: SF-539 CNS
# [39] = system: SK-MEL-2 melanoma
# [40] = system: SK-MEL-28 melanoma
# [41] = system: SK-MEL-5 melanoma
# [42] = system: SK-OV-3 ovarian
# [43] = system: SN12C renal
# [44] = system: SNB-75 CNS
# [45] = system: SNB-78 CNS
# [46] = system: SR leukemia
# [47] = system: SW-620 colon
# [48] = system: TK-10 renal
# [49] = system: U251 CNS
# [50] = system: UACC-257 melanoma
# [51] = system: UACC-62 melanoma
# [52] = system: UO-31 renal
# [53] = system: XF 498 CNS
# [54] = system: DMS 273 small cell lung
# [55] = system: KM20L2 colon
# [56] = system: OVCAR-3 ovarian
# [57] = system: RXF 393 renal
# [58] = system: SNB-19 CNS
# [59] = system: HOP-62 NSCLC
# [60] = system: NCI/ADR-RES ovarian
# [61] = system: P388/ADR leukemia
compound,measurement,setting,value
O=C(/C=C/c1ccc(-c2ccccc2)cc1)c1ccccc1,TGI,[1],50.9 µM
same,TGI,[2],45.7 µM
same,TGI,[3],56.3 µM
same,TGI,[4],> 100 µM
same,TGI,[5],> 100 µM
same,TGI,[6],> 100 µM
same,TGI,[7],52.7 µM
same,TGI,[8],> 100 µM
same,TGI,[9],31.8 µM
same,TGI,[10],50.8 µM
same,TGI,[11],33.7 µM
same,TGI,[12],30.2 µM
same,TGI,[13],54.9 µM
same,TGI,[14],> 100 µM
same,TGI,[15],> 100 µM
same,TGI,[16],51.7 µM
same,TGI,[17],52.1 µM
same,TGI,[18],69.1 µM
same,TGI,[19],> 100 µM
same,TGI,[20],40.6 µM
same,TGI,[21],29.2 µM
same,TGI,[22],42.2 µM
same,TGI,[23],> 100 µM
same,TGI,[24],48.5 µM
same,TGI,[25],> 100 µM
same,TGI,[26],> 100 µM
same,TGI,[27],49.3 µM
same,TGI,[28],41.8 µM
same,TGI,[29],50.9 µM
same,TGI,[30],35.4 µM
same,TGI,[31],> 100 µM
same,TGI,[32],41 µM
same,TGI,[33],33.8 µM
same,TGI,[34],61.8 µM
same,TGI,[35],69 µM
same,TGI,[36],70.1 µM
same,TGI,[37],> 100 µM
same,TGI,[38],32.2 µM
same,TGI,[39],33.6 µM
same,TGI,[40],67.5 µM
same,TGI,[41],49 µM
same,TGI,[42],58.5 µM
same,TGI,[43],> 100 µM
same,TGI,[44],> 100 µM
same,TGI,[45],> 100 µM
same,TGI,[46],87.1 µM
same,TGI,[47],42.7 µM
same,TGI,[48],82.6 µM
same,TGI,[49],58.5 µM
same,TGI,[50],> 100 µM
same,TGI,[51],50 µM
same,TGI,[52],> 100 µM
same,TGI,[53],53.1 µM
COC(=O)CCCCCOS(=O)(=O)c1ccc(C)cc1,TGI,[1],> 100 µM
same,TGI,[2],> 100 µM
same,TGI,[3],> 100 µM
same,TGI,[4],> 100 µM
same,TGI,[6],> 100 µM
same,TGI,[7],> 100 µM
same,TGI,[8],> 100 µM
same,TGI,[9],> 100 µM
same,TGI,[54],> 100 µM
same,TGI,[10],> 100 µM
same,TGI,[11],> 100 µM
same,TGI,[12],> 100 µM
same,TGI,[13],> 100 µM
same,TGI,[14],> 100 µM
same,TGI,[15],> 100 µM
same,TGI,[16],> 100 µM
same,TGI,[17],> 100 µM
same,TGI,[18],> 100 µM
same,TGI,[19],> 100 µM
same,TGI,[20],> 100 µM
same,TGI,[55],> 100 µM
same,TGI,[21],> 100 µM
same,TGI,[22],> 100 µM
same,TGI,[23],> 100 µM
same,TGI,[24],> 100 µM
same,TGI,[25],> 100 µM
same,TGI,[26],> 100 µM
same,TGI,[28],> 100 µM
same,TGI,[29],> 100 µM
same,TGI,[30],> 100 µM
same,TGI,[56],> 100 µM
same,TGI,[32],> 100 µM
same,TGI,[33],> 100 µM
same,TGI,[57],> 100 µM
same,TGI,[35],> 100 µM
same,TGI,[36],> 100 µM
same,TGI,[37],> 100 µM
same,TGI,[38],> 100 µM
same,TGI,[39],> 100 µM
same,TGI,[40],> 100 µM
same,TGI,[41],> 100 µM
same,TGI,[42],> 100 µM
same,TGI,[43],> 100 µM
same,TGI,[58],> 100 µM
same,TGI,[44],> 100 µM
same,TGI,[45],> 100 µM
same,TGI,[46],> 100 µM
same,TGI,[47],> 100 µM
same,TGI,[48],> 100 µM
same,TGI,[49],> 100 µM
same,TGI,[50],> 100 µM
same,TGI,[51],> 100 µM
same,TGI,[52],> 100 µM
same,TGI,[53],> 100 µM
C/C=C(\C)C(=O)OC1C2C(C)=CC(=O)C(O)C2(C)C2C3(O)OCC24C1OC(=O)C(OC(C)=O)C4C(C)C3O (centres undefined),TGI,[2],0.147 µM
same,TGI,[3],0.648 µM
same,TGI,[5],0.674 µM
same,TGI,[6],0.244 µM
same,TGI,[7],0.229 µM
same,TGI,[8],0.078 µM
same,TGI,[9],0.0409 µM
same,TGI,[54],0.0382 µM
same,TGI,[10],0.103 µM
same,TGI,[11],0.0928 µM
same,TGI,[12],0.875 µM
same,TGI,[13],0.328 µM
same,TGI,[14],0.808 µM
same,TGI,[15],0.792 µM
same,TGI,[59],0.0415 µM
same,TGI,[16],0.0508 µM
same,TGI,[17],0.382 µM
same,TGI,[18],0.16 µM
same,TGI,[19],0.375 µM
same,TGI,[20],0.0375 µM
same,TGI,[55],0.795 µM
same,TGI,[21],0.375 µM
same,TGI,[24],0.0455 µM
same,TGI,[26],0.75 µM
same,TGI,[27],0.0427 µM
same,TGI,[28],0.266 µM
same,TGI,[29],0.038 µM
same,TGI,[60],31.2 µM
same,TGI,[56],0.0496 µM
same,TGI,[31],0.413 µM
same,TGI,[32],1.53 µM
same,TGI,[33],0.105 µM
same,TGI,[61],0.924 µM
same,TGI,[34],0.0377 µM
same,TGI,[57],0.063 µM
same,TGI,[36],0.0887 µM
same,TGI,[37],0.0959 µM
same,TGI,[39],0.073 µM
same,TGI,[40],0.0397 µM
same,TGI,[42],1.12 µM
same,TGI,[43],0.468 µM
same,TGI,[44],0.055 µM
same,TGI,[45],0.141 µM
same,TGI,[47],0.525 µM
same,TGI,[49],0.0407 µM
same,TGI,[50],0.0496 µM
same,TGI,[51],0.0555 µM
same,TGI,[52],0.887 µM
same,TGI,[53],0.0577 µM
COc1ccc(/C=C/c2cc(OC)c(OC)c(OC)c2)cc1OC,TGI,[1],> 100 µM
same,TGI,[2],> 100 µM
same,TGI,[3],> 100 µM
same,TGI,[4],> 100 µM
same,TGI,[5],> 100 µM
same,TGI,[6],> 100 µM
same,TGI,[7],> 100 µM
same,TGI,[8],> 100 µM
same,TGI,[9],> 100 µM
same,TGI,[54],> 100 µM
same,TGI,[10],> 100 µM
same,TGI,[11],> 100 µM
same,TGI,[12],> 100 µM
same,TGI,[13],> 100 µM
same,TGI,[14],> 100 µM
same,TGI,[15],> 100 µM
same,TGI,[59],> 100 µM
same,TGI,[16],> 100 µM
same,TGI,[17],> 100 µM
same,TGI,[18],> 100 µM
same,TGI,[19],> 100 µM
same,TGI,[20],> 100 µM
same,TGI,[55],> 100 µM
same,TGI,[21],> 100 µM
same,TGI,[22],> 100 µM
same,TGI,[23],> 100 µM
same,TGI,[25],> 100 µM
same,TGI,[26],> 100 µM
same,TGI,[27],> 100 µM
same,TGI,[28],> 100 µM
same,TGI,[29],> 100 µM
same,TGI,[30],> 100 µM
same,TGI,[56],> 100 µM
same,TGI,[31],> 100 µM
same,TGI,[32],> 100 µM
same,TGI,[33],> 100 µM
same,TGI,[34],> 100 µM
same,TGI,[57],> 100 µM
same,TGI,[35],> 100 µM
same,TGI,[36],> 100 µM
same,TGI,[37],> 100 µM
same,TGI,[38],> 100 µM
same,TGI,[39],> 100 µM
same,TGI,[40],> 100 µM
same,TGI,[41],> 100 µM
same,TGI,[42],> 100 µM
same,TGI,[43],> 100 µM
same,TGI,[58],> 100 µM
same,TGI,[44],> 100 µM
same,TGI,[45],91.9 µM
same,TGI,[46],> 100 µM
same,TGI,[47],> 100 µM
same,TGI,[48],> 100 µM
same,TGI,[49],> 100 µM
same,TGI,[50],> 100 µM
same,TGI,[51],> 100 µM
same,TGI,[52],> 100 µM
same,TGI,[53],> 100 µM
